Source: ChEMBL document CHEMBL1201862, “PubChem BioAssay data set” (2004)
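The compound was tested at five concentrations on cells cultured in 96-well plates, with a 48-hour exposure period. Here, GI50 denotes the concentration required for 50% inhibition of growth.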 Activity calls are given as the source filed them. Rule as the data show it: active = GI50 up to about 1.1 µM and inactive = higher.

What was measured:
Assay in all cases: inhibition of tumour cell growth, NCI panel, 48 h
786-0 = tested on: 786-0
A549 = tested on: A549
CAKI-1 = tested on: CAKI-1
HOP-62 = tested on: HOP-62
HOP-92 = tested on: HOP-92
HT-29 = tested on: HT-29
IGROV-1 = tested on: IGROV-1
KM12 = tested on: KM12
NCI-H23 = tested on: NCI-H23
NCI-H522 = tested on: NCI-H522
OVCAR-3 = tested on: OVCAR-3
RXF 393 = tested on: RXF 393
SF-295 = tested on: SF-295
SK-MEL-2 = tested on: SK-MEL-2
SK-MEL-5 = tested on: SK-MEL-5
SNB-19 = tested on: SNB-19
SNB-78 = tested on: SNB-78
UACC-257 = tested on: UACC-257
UACC-62 = tested on: UACC-62
BT-549 = tested on: BT-549

Row | Structure (SMILES) | GI50 (786-0) | GI50 (A549) | GI50 (CAKI-1) | GI50 (HOP-62) | GI50 (HOP-92) | GI50 (HT-29) | GI50 (IGROV-1) | GI50 (KM12) | GI50 (NCI-H23) | GI50 (NCI-H522) | GI50 (OVCAR-3) | GI50 (RXF 393) | GI50 (SF-295) | GI50 (SK-MEL-2) | GI50 (SK-MEL-5) | GI50 (SNB-19) | GI50 (SNB-78) | GI50 (UACC-257) | GI50 (UACC-62) | GI50 (BT-549)
1 | O=C1NC2C(=CC(O)C(O)C2O)c2cc3c(cc21)OCO3 (stereo unspecified) | 0.245 µM (active) | 0.52 µM (active) | 0.28 µM (active) | 0.463 µM (active) | 0.904 µM (active) | 0.345 µM (active) | 0.494 µM (active) | 0.272 µM (active) | 0.459 µM (active) | 0.244 µM (active) | 0.372 µM (active) | 0.154 µM (active) | 0.582 µM (active) | 0.351 µM (active) | 0.164 µM (active) | 0.244 µM (active) | 0.569 µM (active) | 0.695 µM (active) | 0.421 µM (active) | –
2 | N#Cc1ccc(/C=N/C23CC4CC(CC(C4)C2)C3)cc1 | > 100 µM (inactive) | > 100 µM (inactive) | > 100 µM (inactive) | > 100 µM (inactive) | 83.9 µM (inactive) | 63.1 µM (inactive) | > 100 µM (inactive) | > 100 µM (inactive) | > 100 µM (inactive) | > 100 µM (inactive) | > 100 µM (inactive) | > 100 µM (inactive) | > 100 µM (inactive) | > 100 µM (inactive) | > 10 µM (inactive) | > 100 µM (inactive) | > 100 µM (inactive) | > 100 µM (inactive) | > 100 µM (inactive) | –
3 | CC(=O)C1C(=O)N(C(C)C)C[C@@H]2CCC(=O)C[C@H]12 (stereo partly specified) | > 100 µM (inactive) | > 100 µM (inactive) | > 100 µM (inactive) | > 100 µM (inactive) | > 100 µM (inactive) | > 100 µM (inactive) | > 100 µM (inactive) | > 100 µM (inactive) | > 100 µM (inactive) | > 100 µM (inactive) | > 100 µM (inactive) | > 100 µM (inactive) | > 100 µM (inactive) | > 100 µM (inactive) | > 100 µM (inactive) | > 100 µM (inactive) | > 100 µM (inactive) | > 100 µM (inactive) | > 100 µM (inactive) | –
4 | C=CNC(=O)NC(=O)CSc1nc(=O)c(-c2ccccc2NC(=O)C(F)(F)F)n[nH]1 | 51.2 µM (inactive) | > 100 µM (inactive) | > 100 µM (inactive) | 94 µM (inactive) | 21.6 µM (inactive) | > 100 µM (inactive) | > 100 µM (inactive) | > 100 µM (inactive) | 34.8 µM (inactive) | 51.6 µM (inactive) | 38.3 µM (inactive) | > 100 µM (inactive) | 50 µM (inactive) | > 100 µM (inactive) | 0.569 µM (active) | 32.2 µM (inactive) | 25.2 µM (inactive) | – | > 100 µM (inactive) | –
5 | Cc1c2n(c(=O)[nH]c1=O)C1OC(CO)C(O2)C1O (stereo unspecified) | > 100 µM (inactive) | > 100 µM (inactive) | > 100 µM (inactive) | > 100 µM (inactive) | > 100 µM (inactive) | > 100 µM (inactive) | > 100 µM (inactive) | > 100 µM (inactive) | > 100 µM (inactive) | > 100 µM (inactive) | > 100 µM (inactive) | > 100 µM (inactive) | > 100 µM (inactive) | > 100 µM (inactive) | > 100 µM (inactive) | > 100 µM (inactive) | > 100 µM (inactive) | > 100 µM (inactive) | > 100 µM (inactive) | –
6 | O=C(c1ccc(Cl)cc1)N(C(=S)N1CCN(c2ccccn2)CC1)C1CCCCC1 | 36.4 µM (inactive) | 45.1 µM (inactive) | > 100 µM (inactive) | 71.8 µM (inactive) | > 100 µM (inactive) | 55.3 µM (inactive) | > 100 µM (inactive) | 68.1 µM (inactive) | 96.8 µM (inactive) | 38.6 µM (inactive) | 45.9 µM (inactive) | 35.6 µM (inactive) | 74.1 µM (inactive) | > 100 µM (inactive) | 38.7 µM (inactive) | 96.4 µM (inactive) | > 100 µM (inactive) | 30.8 µM (inactive) | > 100 µM (inactive) | –
7 | COC(=O)Cc1cc(=O)oc2c1C(=O)CCC2 | > 100 µM (inactive) | > 100 µM (inactive) | > 100 µM (inactive) | > 100 µM (inactive) | > 100 µM (inactive) | > 100 µM (inactive) | > 100 µM (inactive) | > 100 µM (inactive) | > 100 µM (inactive) | > 100 µM (inactive) | > 100 µM (inactive) | > 100 µM (inactive) | > 100 µM (inactive) | > 100 µM (inactive) | > 100 µM (inactive) | > 100 µM (inactive) | > 100 µM (inactive) | > 100 µM (inactive) | > 100 µM (inactive) | –
8 | CCCN(CCCN)/[N+]([O-])=N\O | > 100 µM (inactive) | > 100 µM (inactive) | > 100 µM (inactive) | > 100 µM (inactive) | > 100 µM (inactive) | > 100 µM (inactive) | > 100 µM (inactive) | > 100 µM (inactive) | > 100 µM (inactive) | > 100 µM (inactive) | > 100 µM (inactive) | > 100 µM (inactive) | > 100 µM (inactive) | > 100 µM (inactive) | > 100 µM (inactive) | > 100 µM (inactive) | > 100 µM (inactive) | > 100 µM (inactive) | 0.195 µM (active) | –
9 | O=C1c2ccccc2C(=O)c2sc(Nc3ccc([N+](=O)[O-])cc3)nc21 | 5.27 µM (inactive) | 17.5 µM (inactive) | 4.25 µM (inactive) | 13 µM (inactive) | 13.8 µM (inactive) | 23.8 µM (inactive) | 12.5 µM (inactive) | 9.08 µM (inactive) | 2.67 µM (inactive) | 2.55 µM (inactive) | 2.24 µM (inactive) | 5.16 µM (inactive) | 11.8 µM (inactive) | 13.6 µM (inactive) | 2.39 µM (inactive) | 10.3 µM (inactive) | 10 µM (inactive) | 4.9 µM (inactive) | 3.08 µM (inactive) | 14.3 µM (inactive)
